# What was measured:
# 5-HT4 receptor [1] = target: T1, 5-HT4 receptor (Homo sapiens, UniProt Q13639); assay: [3H]-GR113808 radioligand displacement at two concentrations; partial agonist reference in cAMP assay; format: binding; conditions: read-out: 5-HT4R (1 × 10^-6 M)
# T1 construct: gene HTR4
# [2] = target: T2, HA-tagged human 5-HT4 receptor (Homo sapiens, UniProt Q13639); assay: cell-based; parameters: cAMP production by HTRF in transiently transfected COS-7 cells, 10 min, with RO-20-1724; conditions: COS-7; read-out: Top AMPc
# T2 construct: gene HTR4; HA-tagged, transiently expressed in COS-7 cells
# Procedure: COS-7 cells were purchased from ATCC (ATCC CRL-1651; LGC […], Molsheim, France). They were grown in Dulbecco’s modified Eagle medium (DMEM) supplemented with 10% dialyzed fetal calf serum (dFCS) and antibiotics. The cells were transiently transfected with the plasmid encoding HA-tagged human 5-HT4 receptor, then seeded in 96-wells plate (35,000 cells/well). Approximately 24 hrs after transfection, the cells were washed once with 200 µL of HBS (20 mM HEPES; 150 mM NaCl; 4.2 mM KCl; 0.9 mM CaCl2; 0.5 mM MgCl2; 0.1% glucose; 0.1% BSA) and, after HBS removal, exposed to the indicated concentrations of 5-HT4R ligands in the presence of 0.1 mM of the phosphodiesterase inhibitor RO-20-1724, at 37 °C in 100 µL of HBS. After 10 min, the cells were then lysed by the addition of the same volume of Triton-X100 (0.1%) during 30 min at 37 °C. Quantification of the cAMP production was performed by HTRF by using the cAMP—HTRF Gs Dynamic kit (Perkin Elmer, Codolet, France) according to the manufacturer’s instructions. 2.2.4.
# 5-HT4 receptor [3] = target: T1, 5-HT4 receptor; assay: [3H]-GR113808 radioligand competition, five-point inhibition curves; partial agonist in cAMP HTRF assay; format: binding
# 5-HT4 receptor [4] = target: T1, 5-HT4 receptor; assay: [3H]-GR113808 radioligand displacement at two concentrations; format: binding; conditions: read-out: 5-HT4R (1 × 10^-6 M)
# T1 sequence (Q13639 whole entry): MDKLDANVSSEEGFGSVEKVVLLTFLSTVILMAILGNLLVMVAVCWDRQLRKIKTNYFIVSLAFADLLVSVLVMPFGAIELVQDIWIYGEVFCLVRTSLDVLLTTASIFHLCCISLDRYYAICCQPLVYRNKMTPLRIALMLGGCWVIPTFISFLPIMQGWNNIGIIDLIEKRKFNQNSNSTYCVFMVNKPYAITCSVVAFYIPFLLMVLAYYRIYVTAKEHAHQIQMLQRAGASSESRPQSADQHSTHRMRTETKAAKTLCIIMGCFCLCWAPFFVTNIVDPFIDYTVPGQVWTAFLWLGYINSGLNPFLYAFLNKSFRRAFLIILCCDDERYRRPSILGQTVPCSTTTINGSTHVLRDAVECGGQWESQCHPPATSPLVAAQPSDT
# T2 sequence (Q13639 whole entry): as above
Ki (5-HT4 receptor [3]),inhibition at 1 µM (5-HT4 receptor [4]),Compound,inhibition at 1 µM (5-HT4 receptor [1]),Emax [2]
,,CCCCN1CCC(CCC(=O)c2cc(Cl)c(N)cc2OC)CC1 [RS67333],100%,68%
42.6 ± 4.1 nM,,"COc1cc(N)c(Cl)cc1C(=O)CCC1CCN(CCNC(=O)c2cc(C(=O)NCCO)cc(C(=O)NCCO)c2)CC1 [compound 8, N^1-(2-{4-[3-(4-amino-5-chloro-2-methoxyphenyl)-3-oxopropyl]piperidin-1-yl}ethyl)-N^3,N^5-bis(2-hydroxyethyl)benzene-1,3,5-tricarboxamide]",,48%
,82%,"COc1cc(N)c(Cl)cc1C(=O)CCC1CCN(CCCNC(=O)c2cc(C(=O)NCCO)cc(C(=O)NCCO)c2)CC1 [compound 13, N^1-(3-(4-(3-(4-amino-5-chloro-2-methoxyphenyl)-3-oxopropyl)piperidin-1-yl)propyl)-N^3,N^5-bis(2-hydroxyethyl)benzene-1,3,5-tricarboxamide]",,
,55%,"COc1cc(N)c(Cl)cc1C(=O)CCC1CCN(CCOCCNC(=O)c2cc(C(=O)NCCO)cc(C(=O)NCCO)c2)CC1 [compound 19, N^1-(2-(2-(4-(3-(4-amino-5-chloro-2-methoxyphenyl)-3-oxopropyl)piperidin-1-yl)ethoxy)ethyl)-N^3,N^5-bis(2-hydroxyethyl)benzene-1,3,5-tricarboxamide]",,

# Source: paper PMC10819171, “Development of Pleiotropic TrkB and 5-HT4 Receptor Ligands as Neuroprotective Agents” (Molecules, 2024)
